Assay results: patent US20060167110A1 (priority 1995, published 2006)

Tests used:
[1] = tested on: rat embryonic mesencephalic cells; assay: [3H]dopamine uptake, medium change (glutamate receptor dependent) model of cell death; conditions: 50 μM
Experimental: Preparations are then added to 10 ml Ecoscint (National Diagnostics) and counted in a scintillation spectrometer.
(§1) In these experiments, cells were plated and allowed to stabilize for several days.

[2] = tested on: cultured rat mesencephalic cells; assay: TH immunochemistry after 100 μM NMDA exposure; conditions: 50 μM; single sample; listed as Deprenyl
Experimental: Rat mesencephalic cell cultures were exposed to 100 μM NMDA and incubated as described above in connection with FIG. 16.

MAO-A [3] = target: T1, MAO-A (Cavia porcellus, UniProt H0UVA2); assay: MAO-A inhibition in guinea pig hippocampal homogenates in vitro; format: biochemical; design: specific substrates of MAO-A (^14C-serotonin) in guinea pig hippocampal homogenates; from tissue; host or cells: guinea pig hippocampal homogenates
T1 sequence (H0UVA2 1-461): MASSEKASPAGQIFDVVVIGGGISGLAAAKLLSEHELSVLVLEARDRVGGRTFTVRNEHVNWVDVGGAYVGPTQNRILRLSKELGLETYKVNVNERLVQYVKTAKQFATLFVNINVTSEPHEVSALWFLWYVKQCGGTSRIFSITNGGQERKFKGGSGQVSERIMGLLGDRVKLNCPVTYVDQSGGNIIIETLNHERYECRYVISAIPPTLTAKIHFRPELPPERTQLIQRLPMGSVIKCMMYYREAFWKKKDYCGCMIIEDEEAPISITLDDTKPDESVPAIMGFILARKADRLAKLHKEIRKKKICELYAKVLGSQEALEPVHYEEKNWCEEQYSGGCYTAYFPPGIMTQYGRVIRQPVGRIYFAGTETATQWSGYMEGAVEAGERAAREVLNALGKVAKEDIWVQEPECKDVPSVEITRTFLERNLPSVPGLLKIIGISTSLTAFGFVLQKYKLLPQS
From the text: Human platelet MAO is comprised exclusively of the type-B isoform of the enzyme. […] The present study also examined the two enantiomers of DMS for inhibitory activity with respect to the MAO-A and MAO-B in guinea pig hippocampal tissue. Guinea pig brain tissue is an excellent animal model for studying brain dopamine metabolism, the enzyme kinetics of the multiple forms of MAO and the inhibitory properties of novel agents that interact with these enzymes. The multiple forms of MAO in this animal species show similar kinetic properties to those found in human brain tissue. Finally, the test agents were administered to guinea pigs and the extent to which they might act as inhibitors of brain MAO in vivo was assessed.
In vitro: The test system utilized the in vitro conversion of specific substrates of MAO-A (^14C-serotonin) in guinea pig hippocampal homogenates or MAO-B (^14C-phenylethylamine) by human platelets and guinea pig hippocampal homogenates. […] A percent inhibition was calculated from these values.

[4] = tested on: rat embryonic mesencephalic cells; assay: TH positive cell survival, medium change (glutamate receptor dependent) model of cell death
Experimental: as §1

MAO-A [5] = target: T2, MAO-A (Rattus norvegicus, UniProt P21396); assay: Inhibition of MAO-A in rat cortex mitochondrial-rich fractions; conditions: read-out: Percent Inhibition MAO-A
T2 sequence (P21396 1-526): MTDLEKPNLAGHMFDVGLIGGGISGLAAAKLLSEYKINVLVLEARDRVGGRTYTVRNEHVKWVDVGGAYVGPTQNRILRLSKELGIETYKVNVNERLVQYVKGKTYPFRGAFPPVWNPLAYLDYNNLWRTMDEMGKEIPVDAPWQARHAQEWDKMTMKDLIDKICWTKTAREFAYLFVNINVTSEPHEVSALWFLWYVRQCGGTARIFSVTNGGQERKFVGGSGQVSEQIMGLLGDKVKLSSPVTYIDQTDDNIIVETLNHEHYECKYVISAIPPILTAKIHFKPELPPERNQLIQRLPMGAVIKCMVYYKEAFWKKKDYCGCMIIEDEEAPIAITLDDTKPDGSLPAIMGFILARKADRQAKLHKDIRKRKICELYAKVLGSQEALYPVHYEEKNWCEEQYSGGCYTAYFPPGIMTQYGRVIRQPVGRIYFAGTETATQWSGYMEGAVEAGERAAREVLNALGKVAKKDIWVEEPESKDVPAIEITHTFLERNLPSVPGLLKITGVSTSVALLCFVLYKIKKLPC

MAO-A [6] = target: T1, MAO-A; assay: In vivo MAO-A inhibition in guinea pig cortex (hippocampus) after 5 s.c. treatments; conditions: sc, read-out: inhibition of MAO-A activity
Experimental: Hippocampal homogenates containing enzyme were prepared, and assays in vitro for MAO-A and MAO-B activity.

`C#CCN(C)[C@H](C)Cc1ccccc1` [Selegiline, (R)-N-α-dimethyl-N-2-propynylbenzeethanamine, reference compound] was tested, and the “neuron protection by measurement of dopamine uptake (FIG. 15)” value [1] was “neuron protection”, the “TH positive cells, cells/cm^2” value [2] was 230 cells/cm^2 and the “MAO-A % Reduction 0 ± SEM” value (MAO-A [3]; Concentration 300 nM) was 11.95 ± 2.4%. For the same molecule, the “MAO-A % Reduction 0 ± SEM” value (MAO-A [3]; Concentration 1 μM) was 22.1 ± 1.2%, the “MAO-A % Reduction 0 ± SEM” value (MAO-A [3]; Concentration 3 μM) was 53.5 ± 2.7% and the “reduction in potency compared to selegiline, MAO-A” value (MAO-A [3]; figure in parentheses, times less potent) was 1. The “TH positive cells, cells/cm^2” value ([4]; 50 μM, Mean, listed as Deprenyl) was 344.2 cells/cm^2, the “survival of dopaminergic neurons (TH staining and tritiated dopamine uptake, FIGS. 11 and 12)” value ([4]; 0.5, 5.0 or 50 μM, 4 days of daily medium changes) was “promotes the survival of dopaminergic neurons” and the inhibition at 0.03 µM (MAO-A [5]) was 0%. For the same molecule, the inhibition at 1 mg/kg (MAO-A [6]) was 36.1%.
